What was measured:
[1] = Oxidation stability of reduced coenzyme Q10 ethanol solution with L-ascorbic acid, stirred in air at 50° C.; format: physicochemical; settings: 1 part L-ascorbic acid per 100 parts solvent, after 50 hours
Method: In the examples, purity of reduced coenzyme Q10 and the weight ratio of reduced coenzyme Q10/oxidized coenzyme Q10 were determined by the HFLC analysis specified below. The reduced coenzyme Q10 purity values as determined, however, are by no means indicative of the limit purity value attainable in accordance with the present invention. Likewise, the ratio of the reduced coenzyme Q10 in the weight ratio of reduced coenzyme Q10/oxidized coenzyme Q10 values obtained never indicates the upper limit to that ratio.
Column; SYMMETRY C18 (product of Waters), 250 mm (in length), 4.6 mm (in inside diameter): mobile phase; C2H5OH/CH3OH=4/3 (v/v); detection wavelength; 210 nm; flow rate; 1 ml/min: retention time of reduced coenzyme Q10; 9.1 min: retention time of oxidized coenzyme Q10; 13.3 min.
Using the reduced coenzyme Q10 crystal obtained in Example 1, an ethanol solution containing 5 parts by weight of reduced coenzyme Q10 relative to 100 parts by weight of ethanol was prepared. To this ethanol solution, L-ascorbic acid was added so that 1 part by weight of L-ascorbic acid was contained relative to 100 parts by weight of the solvent (20 parts by weight relative to 100 parts by weight of reduced coenzyme Q10), and the solution was stirred in air at 50° C. […]

[2] = Preliminary investigations on stabilization of reduced coenzyme Q10; format: physicochemical

X: The residual ratio of ascorbic acid [1] | stabilization effect on reduced coenzyme Q10 ([2]; preliminary investigations) | stabilization effect on reduced coenzyme Q10 ([2]; used in combination with polyhydric alcohols having 3 or more OH, such as glycerine) | Compound
85.2% |  |  | O=C1O[C@H]([C@@H](O)CO)C(O)=C1O [L-ascorbic acid]
 | has a stabilization effect | very poor | O=C1O[C@H]([C@@H](O)CO)C(O)=C1O [vitamin C]
 | does not have the effect |  | Vitamin E [reference compound]

Source: patent publication US9532957B2, “Method of stabilizing reduced coenzyme Q10” (Kaneka Corporation, priority 2001, dated 2017)
